According to PubChem BioAssay AID179 (DTP/NCI, 2004):
“And” between values parts separate entries of the source, which are not always exact repeats. Identical values can stand only once. The source made the active and inactive calls.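 The calls were made as follows: active = compounds giving half or more protection of infected cells from virus-caused growth loss, again on retest; inactive = the rest.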

Test system: CEM cells HIV-1 protection, formazan growth assay
Test: NCI AIDS Antiviral Assay
Details: for IC50: measured here: growth of uninfected CEM cells
Procedure, shortened: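 Screen of anti-HIV-1 activity in human CEM cells using a formazan-based growth measurement at five drug concentrations. Hits with 50% or greater protection were repeated, and confirmation required reproducible complete protection.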

Row | Compound | EC50 [µM] | IC50 | outcome
1 | CC1C(=O)c2cc3c(cc2CCN(C)Cc2c1ccc1c2OCO1)OCO3 (stereo unspecified) | > 70.8 | > 70.8 µM | 
2 | COc1c(OC)c(O)c2c(=O)c(OC)c(-c3ccc4c(c3)OCO4)oc2c1O | > 200 | 74.1 µM | 
3 | Cc1[nH]n(-c2nc3c(c(=O)[nH]2)CCC3)c(=O)c1CCO | > 200 | 182 µM | 
4 | c1ccc2c(c1)[nH]c1c[n+]3c(c[n+]12)[nH]c1ccccc13 | > 200 | > 200 µM | 
5 | Cn1cnc2c1S(=O)(=O)NC(=S)N2 | > 1150 | > 1150 µM | 
6 | CCC1(CC)C(=O)NN(C(=O)c2ccc(Cl)cc2)C1=O | > 200 | > 200 µM | 
7 | [N-]=[N+]=NC1=C(N=[N+]=[N-])c2cccc3cccc(c23)C1=O |  |  | inactive
8 | COc1ccc(NC(=O)/C(=C/N2C(=O)/C(=C\C(C)=C\c3ccccc3)SC2=S)C(C)=O)cc1 | > 200 | 13.5 µM | 
9 | Cn1c(N)c2c(=O)n(C)c3c(c2c(C#N)c1=O)CCSc1ccccc1-3 | > 9.33 | > 9.33 µM | 
10 | CC(=O)OC(CC1(C)C(C)CCC23COC(=O)C2=CCCC31)c1ccoc1 (stereo unspecified) | > 69.2 | 30.2 µM | 
11 | COc1ccc(-c2cc(=O)c3cc(Cl)cc(Cl)c3o2)cc1OC | > 100 | > 100 µM | 
12 | CCN(CC)CCC12CC(C)OC1=Nc1ccccc1NC2=O (stereo unspecified) | > 200 | > 200 µM | 
13 | CCCCC1Sc2cc(OC)cc3nnn(c23)C1=O (stereo unspecified) | > 200 | > 200 µM | 
14 | Cn1cnc2c1c(=O)n(CCNCCO)c(=O)n2C | > 200 | > 200 µM | 
15 | CCOC1NC(=O)NC(=O)C1(C)Cl (stereo unspecified) | > 200 | > 200 µM | 
16 | CC(C)C(Nc1c2ccccc2nc2ccccc12)C(=O)O (stereo unspecified) |  |  | inactive
17 | COc1c(O)c2c(=O)cc(OC)c3c4c(OC)cc(=O)c5c(O)c(OC)c6c(c(c1C(C(C)O)C6C(C)O)c23)c54 (stereo unspecified) | > 2 | 0.339 µM | 
18 | O=C(O)c1cc(O)cc(O)c1N=Nc1ccc(/C=C/c2ccc(N=Nc3c(O)cc(O)cc3C(=O)O)cc2S(=O)(=O)O)c(S(=O)(=O)O)c1 | 0.813 | 91.2 µM | 
19 | COC(=O)C1=C(C)NC2=C(C(=O)CCC2)C1CCSC (stereo unspecified) |  |  | inactive
20 | O=C1CCC2(c3ccc(Cl)cc3)Nc3ncccc3N12 (stereo unspecified) | > 126 | 97.7 µM | 
21 | CCOc1ccccc1N=C(NC(=O)CC)SC | > 18.2 | > 18.2 µM | 
22 | COc1cc2cc[n+]3c(C)c4cc(OC)c(OC)cc4c([O-])c3c2cc1OC | > 200 | 123 µM | 
23 | O=S1c2ccccc2SCSc2ccccc21 | > 200 | > 200 µM | 

Row | Compound | EC50 [µM] | IC50 | outcome
24 | CCOC(=O)N1c2c(ccn2C)-c2ccn(C)c2N1C(=O)OCC | > 15.1 | 5.89 µM | 
25 | O=c1cc2oc3cc(O)c(O)cc3c(-c3ccccc3)c-2cc1O | > 200 | 39.8 µM and 83.2 µM | 
26 | COC1=CC23C=CC1[C@@H](c1ccccc1)C2=C(C)C(=O)N3C(=O)NC1CCCCC1 (stereo partly specified) | > 12.9 | > 12.9 µM | 
27 | O=c1[nH]c(Nc2nc3ccccc3[nH]2)nc(O)c1Cc1ccccc1 | > 151 | > 151 µM | 
28 | CC(C)c1ccc(/C=C2\C=Cc3ccccc32)cc1 | > 40.7 | > 40.7 µM | 
29 | COc1ccc(N/N=C2\CCOc3ccc(C)cc3C2=O)cc1 | > 20 | 12 µM | 
30 | CCC1=C(CC)C1(C#N)[N+](=O)[O-] | > 251 | > 251 µM | 
31 | O=[N+]([O-])c1ccc(OCCC[P+](c2ccccc2)(c2ccccc2)c2ccccc2)c(Cl)c1 | > 200 | 1.7 µM | 
32 | O=C1CCC(c2ccccc2)C(O)(C(=O)O)C1 (stereo unspecified) | > 389 | > 389 µM | 
33 | NC1=NN(c2ccccc2)C(=O)C1C(=O)CCC(=O)Nc1cccc(Cl)c1 (stereo unspecified) | > 339 | > 339 µM | 
34 | CCOC(=O)CCC(=O)C1c2cccc(O)c2C(=O)c2c(O)cc(C)cc21 (stereo unspecified) | > 37.2 | 1.35 µM | 
35 | CCn1c(=N)sc2nc3ccccc3n2c1=O | > 200 | 58.9 µM | 
36 | NC(=S)N/C=C(/c1ccc(Cl)cc1Cl)S(=O)(=O)Cc1ccc(Cl)cc1Cl | > 100 | > 100 µM | 
37 | N#CC1(C#N)NC(c2cccnc2)C(C#N)(C#N)NC1c1cccnc1 (stereo unspecified) | > 200 | > 200 µM | 
38 | COC(=O)c1cccc2cccc(C(=O)Nc3ccc(C)cc3C)c12 | > 2.24 | > 2.24 µM | 
39 | COc1nc2c(c(=O)n1C)N=C(c1ccc(Cl)cc1)CC(c1ccccc1)N2 (stereo unspecified) | > 200 | 30.9 µM | 
40 | O=[N+]([O-])c1ccc2[nH]c(=S)n(/C=C(/c3ccccc3)S(=O)Cc3ccccc3)c2c1 (stereo unspecified) | > 200 | > 200 µM | 
41 | C[CH2][Sn]([CH2]C)([O]C(=O)c1c(F)cccc1F)[O][Sn]([CH2]C)([CH2]C)[O]C(=O)c1c(F)cccc1F | > 72.4 | 4.79 µM | 
42 | O=c1c2[nH]c3cccc(Cl)c3c2cnn1-c1ccc(F)cc1 | > 6.03 | > 6.03 µM | 
43 | COC(=O)[C@@H](CO)NC(=O)OC(C)(C)C | > 200 | > 200 µM | 
44 | Cn1c(=O)c2c(nc3n(C)c(=O)c4ccccc4n23)n(C)c1=O | > 200 | 2.51 µM | 
45 | C=C(C)[C@@H]1CC[C@@]2(C)[C@H]1[C@H]1CCC3[C@@]4(C)CC[C@H](O)C(C)(C)[C@@H]4CC[C@@]3(C)[C@]1(C)C[C@@H]2O (stereo partly specified) | > 100 | 66.1 µM | 
46 | CN/C=C(\C(=O)c1ccc(OC)c(OC)c1)c1ccc(OC)cc1 | > 398 | 6.92 µM | 

Row | Compound | EC50 [µM] | IC50 | outcome
47 | Cc1nc(N)nc(N)c1CCCCc1ccccc1 |  |  | inactive
48 | CNC(=S)Nc1sc2c(c1C#N)CCCC2 | 148 | 151 µM | 
49 | Oc1ccc(S)cc1CNC1CCCCC1 | > 200 | 13.2 µM | 
50 | CCCCN(C=O)CCc1ccccc1 | > 1230 | > 1230 µM | 
51 | Cc1ccc([B-]23OCC[N+]2(CNC(=O)C2=C(O)C4(O)C(=O)C5=C(O)c6c(O)cccc6C(C)(O)C5CC4C(N(C)C)C2=O)CCO3)cc1 (stereo unspecified) | > 53.7 | > 53.7 µM | 
52 | O=Nc1ccc(N=O)cc1 | > 200 | > 200 µM | 
53 | O=C(Nc1ccc([N+](=O)[O-])cc1)N(c1cc(Cl)ccn1)C1CCCCC1 | > 200 | 11 µM | 
54 | O=S(c1ccc(Cl)cc1)c1ccccc1C1=NCCN1 (stereo unspecified) | > 200 | > 200 µM | 
55 | CCNC(=O)Sc1ccccc1C(=O)N[C@H](C)C(N)=O | 1.15 | 93.3 µM | 
56 | NC(CSS(=O)(=O)O)=NCC1CCCCC1 | > 200 | 58.9 µM | 
57 | O=C(O)C1CCSS1 (stereo unspecified) | > 457 | 263 µM | 
58 | COc1ccc2c(ccc3c(C(=O)NCCN(C)CCNC(=O)c4cn(C)c5c4ccc4cc(OC)ccc45)cn(C)c32)c1 | > 200 | 1.15 µM | 
59 | CC(=O)OCCn1c(Cc2ccc([N+](=O)[O-])cc2)nn(C(C)=O)c1=O | > 200 | > 200 µM | 
60 | CC1=C/C(=C(\c2cc(C)c(O)c(C(=O)O)c2)c2c(Cl)cccc2Cl)C=C(C(=O)O)C1=O |  |  | inactive
61 | NC(=O)CNC(=O)c1ccccc1SC(=O)CC[n+]1ccccc1 | > 200 | 102 µM | 
62 | CCCN(CCC)C1CCc2c(ccc3cc[nH]c23)C1 (stereo unspecified) |  |  | inactive
63 | Cc1cccc(NC(=O)CSc2nnc(-c3ccc(N=Cc4ccc(Cl)cc4)cc3)o2)c1 | > 21.4 | > 21.4 µM | 
64 | CN(CCCNC(=O)c1cc(-c2ccccc2)nc2ccccc12)CCCNC(=O)c1cc(-c2ccccc2)nc2ccccc12 | > 20 | 3.39 µM | 
65 | Cc1nc2sccn2c1C(N)=O | > 200 | > 200 µM | 
66 | Cn1cc(C(=O)c2ccccc2)c2ccccc2c1=O |  |  | inactive
67 | Cc1cc(NS(=O)(=O)c2ccc(NC(=O)c3ccc(Cl)c4c(Nc5ccc(S(=O)(=O)Nc6cc(C)on6)cc5)c5ccccc5nc34)cc2)no1 | > 47.9 | > 47.9 µM | 
68 | COC(=O)/C(=C\c1cn(C(C)=O)c2ccccc12)P(=O)(OC)OC | > 200 | 33.1 µM | 
69 | Cc1nn[n-]n1.N.N.N.N.N.[Cl-].[Co+3] | > 832 | > 832 µM | 

Row | Compound | EC50 [µM] | IC50 | outcome
70 | CO/C(=N/N1CC1C(F)(F)F)c1ccncc1 (stereo unspecified) |  |  | inactive
71 | O=C(Nc1nc(C23CC4CC(CC(C4)C2)C3)cs1)c1c(O)c2ccccc2[nH]c1=O | > 200 | > 200 µM | 
72 | O=C(CCc1cc(-c2ccccc2)n[nH]1)Nc1ccccc1[N+](=O)[O-] |  |  | inactive
73 | COc1ccc2cc3[nH]c(=O)cc(O)c3cc2c1OC |  |  | inactive
74 | OCCCSc1ccccc1SCCCO | > 52.5 | > 52.5 µM | 
75 | O=C1/C(=C/c2cccs2)NC(=S)N1CN1CCCCC1 | > 200 | 33.1 µM | 
76 | Cc1cccc(/C=N/NC(=S)NC(C)(C)C)n1 | > 200 | 18.2 µM | 
77 | c1ccc(-c2csc3n4ccccc4c[n+]23)cc1 |  |  | inactive
78 | NC(=O)c1nnc2c(F)cccc2c1N | > 200 | 182 µM | 
79 | O=c1c2ccccc2nc(-c2ccccc2)n1NC1OC(CO)C(O)C(O)C1O (stereo unspecified) |  |  | inactive
80 | CCOC(=O)NCC(=O)NCC(=O)NCC(N)=O | > 200 | > 200 µM | 
81 | CCOc1ncn(-c2ccc(NC(=S)NC3OC(CO)C(O)C(O)C3O)cc2)n1 (stereo unspecified) | > 200 | > 200 µM | 
82 | O=c1oc2c/c(=C\c3ccc([N+](=O)[O-])cc3)c(=O)c3cccc1c3-2 | > 200 | 30.9 µM | 
83 | COc1cc(C[C@@H](C)N)cc(OC)c1 | > 200 | > 200 µM | 
84 | C=CCCCCCCCC(O)C1C[C@H](O)C(CCCCC)O1 (stereo partly specified) |  |  | inactive
85 | O=C1OC(c2ccccc2)=N/C1=C\c1ccco1 | > 75.9 | 60.3 µM | 
86 | CCOC(=O)Cc1ccc2c(c1O)C(=O)c1c(ccc(CC(=O)OCC)c1O)C2=O |  |  | inactive
87 | COc1ccc(COC2C(C/[N+]([O-])=N\Nc3ccc([N+](=O)[O-])cc3)OC3OC(C)(C)OC32)cc1 (stereo unspecified) | > 200 | 12.6 µM | 
88 | CN(C)Cc1cc(C(=O)/C=C/c2ccc([N+](=O)[O-])cc2)cc(CN(C)C)c1O | > 200 | 2.82 µM | 
89 | O=S1(=O)CCCS(=O)(=O)C(c2ccccc2)=C1c1ccccc1 | > 145 | 50.1 µM | 
90 | CCCCCCCCCCC(O)C1CCC(C(O)CCC(O)C2CCC(CCCCCCC[C@H](O)CC3=C[C@@H](C)OC3=O)O2)O1 (stereo partly specified) | > 7.76 | 0.00245 µM | 
